This is an account of results in ChEMBL document CHEMBL3045142, “Several Antifeedants from Neem Oil,Azadirachta indicaA. Juss., againstReticulitermes speratusKolbe (Isoptera: Rhinotermitidae)” (1992).

Assay type in all cases: functional
Assay [1] relates to Reticulitermes speratus. Description: Antifeedant activity against Reticulitermes speratus assessed as reduction in feeding at 100 to 200 ug/disk after 30 days by no-choice bioassay relative to vehicle-control. Further details: scale not given: the % may be the effect or the level left.
Assay [2] concerns Reticulitermes speratus. Description: Antifeedant activity against Reticulitermes speratus assessed as antifeedant consumption at 100 ug/disk after 30 days by no-choice bioassay.
The subject of assay [3] is Reticulitermes speratus. Description: Antifeedant activity against Reticulitermes speratus assessed as antifeedant consumption at 200 ug/disk after 30 days by no-choice bioassay.
Assay [4] has as its system Reticulitermes speratus. Description: Antifeedant activity against Reticulitermes speratus assessed per disk after 30 days by no-choice bioassay.
The test system of assay [5] is Reticulitermes speratus. Description: Antifeedant activity against Reticulitermes speratus assessed as antifeedant consumption at 150 ug/disk after 30 days by no-choice bioassay.
Assay [6] concerns Reticulitermes speratus. Description: Antifeedant activity against Reticulitermes speratus assessed as antifeedant consumption at 50 ug/disk after 30 days by no-choice bioassay.
Assay [7] deals with Reticulitermes speratus. Description: Antifeedant activity against Reticulitermes speratus assessed as antifeedant consumption at 75 ug/disk after 30 days by no-choice bioassay.
For assay [8], the system named is Reticulitermes speratus. Description: Antifeedant activity against Reticulitermes speratus assessed as survival at 50 ug/disk after 30 days by no-choice bioassay (reference value: 92.5%). The settings on record: 720 h.
Assay [9] relates to Reticulitermes speratus. Description: Antifeedant activity against Reticulitermes speratus assessed as survival at 100 ug/disk after 30 days by no-choice bioassay (reference value: 92.5%). The settings on record: 720 h.
Assay [10] deals with Reticulitermes speratus. Description: Antifeedant activity against Reticulitermes speratus assessed as survival at 400 ug/disk after 30 days by no-choice bioassay (reference value: 92.5%). The following applies: 720 h.
The test system of assay [11] is Reticulitermes speratus. Description: Antifeedant activity against Reticulitermes speratus assessed as survival at 300 ug/disk after 30 days by no-choice bioassay (reference value: 92.5%). The settings on record: 720 h.
Assay [12] relates to Reticulitermes speratus. Description: Antifeedant activity against Reticulitermes speratus assessed as survival at 200 ug/disk after 30 days by no-choice bioassay (reference value: 92.5%). The following applies: 720 h.
Assay [13] deals with Reticulitermes speratus. Description: Antifeedant activity against Reticulitermes speratus assessed as antifeedant consumption at 300 ug/disk after 30 days by no-choice bioassay.
Assay [14] concerns Reticulitermes speratus. Description: Antifeedant activity against Reticulitermes speratus assessed as antifeedant consumption at 400 ug/disk after 30 days by no-choice bioassay.
Assay [15] deals with Reticulitermes speratus. Description: Antifeedant activity against Reticulitermes speratus assessed as survival at 500 ug/disk after 30 days by no-choice bioassay (reference value: 92.5%). The following applies: 720 h.
For assay [16], the system named is Reticulitermes speratus. Description: Antifeedant activity against Reticulitermes speratus assessed as antifeedant consumption at 500 ug/disk after 30 days by no-choice bioassay.
For assay [17], the system named is Reticulitermes speratus. Description: Antifeedant activity against Reticulitermes speratus assessed as survival at 10 ug/disk after 30 days by no-choice bioassay (reference value: 92.5%). The following applies: 720 h.
Assay [18] deals with Reticulitermes speratus. Description: Antifeedant activity against Reticulitermes speratus assessed as antifeedant consumption at 5 ug/disk after 30 days by no-choice bioassay.
Assay [19] deals with Reticulitermes speratus. Description: Antifeedant activity against Reticulitermes speratus assessed as survival at 5 ug/disk after 30 days by no-choice bioassay (reference value: 92.5%). The following applies: 720 h.
For assay [20], the system named is Reticulitermes speratus. Description: Antifeedant activity against Reticulitermes speratus assessed as survival at 25 ug/disk after 30 days by no-choice bioassay (reference value: 92.5%). The following applies: 720 h.
The test system of assay [21] is Reticulitermes speratus. Description: Antifeedant activity against Reticulitermes speratus assessed as survival at 7.5 ug/disk after 30 days by no-choice bioassay (reference value: 92.5%). The following applies: 720 h.
The test system of assay [22] is Reticulitermes speratus. Description: Antifeedant activity against Reticulitermes speratus assessed as antifeedant consumption at 7.5 ug/disk after 30 days by no-choice bioassay.
In assay [23] the test system is Reticulitermes speratus. Description: Antifeedant activity against Reticulitermes speratus assessed as reduction in feeding at 50 ug/disk after 30 days by no-choice bioassay relative to vehicle-control. Further details: scale not given: the % may be the effect or the level left.
The subject of assay [24] is Reticulitermes speratus. Description: Antifeedant activity against Reticulitermes speratus assessed as antifeedant consumption at 25 ug/disk after 30 days by no-choice bioassay.
The test system of assay [25] is Reticulitermes speratus. Description: Antifeedant activity against Reticulitermes speratus assessed as antifeedant consumption at 10 ug/disk after 30 days by no-choice bioassay.
Assay [26] concerns Reticulitermes speratus. Description: Antifeedant activity against Reticulitermes speratus assessed as survival at 150 ug/disk after 30 days by no-choice bioassay (reference value: 92.5%). The settings on record: 720 h.
The test system of assay [27] is Reticulitermes speratus. Description: Antifeedant activity against Reticulitermes speratus assessed as survival at 125 ug/disk after 30 days by no-choice bioassay (reference value: 92.5%). The following applies: 720 h.
The subject of assay [28] is Reticulitermes speratus. Description: Antifeedant activity against Reticulitermes speratus assessed as antifeedant consumption at 125 ug/disk after 30 days by no-choice bioassay.
The subject of assay [29] is Reticulitermes speratus. Description: Antifeedant activity against Reticulitermes speratus assessed as survival at 75 ug/disk after 30 days by no-choice bioassay (reference value: 92.5%). The following applies: 720 h.

Regarding `COC(=O)C[C@H]1[C@]2(C)C3=C(C)[C@H](c4ccoc4)C[C@@H]3O[C@@H]2[C@H](O)[C@@H]2[C@@]1(C)C(=O)C=C[C@@]2(C)O`, the Activity in [1] was determined as 80%; in [2], 19.9 µg; in assay [3] it was 6.4 µg; in assay [5], 10 µg; in assay [6], 16.3 µg; in assay [7], 25.2 µg. For the same molecule, the PC50 in assay [4] was determined as 96 µg. Besides, in assay [4], the PC95 is 245.4 µg.
As to `CC(=O)O[C@@H]1C[C@H]2C(C)(C)C(=O)C=C[C@]2(C)[C@H]2CC[C@]3(C)C(=CC(=O)[C@@H]3c3ccoc3)[C@@]21C` [17-EPIAZADIRADIONE], in [8], the survival at 50 µg/disc was determined as 87%. Also, in assay [9], the survival at 100 µg/disc worked out at 85.5%. For the same molecule, in assay [10], the survival at 400 µg/disc was found to be 86.5%. For the same molecule, the survival at 300 µg/disc in assay [11] amounted to 86.5%. Moreover, the survival at 200 µg/disc in [12] came out at 85.5%.
In the case of `CC(=O)O[C@@H]1C[C@H]2C(C)(C)C(=O)C=C[C@]2(C)[C@H]2CC[C@]3(C)C(=CC(=O)[C@@]3(O)c3ccoc3)[C@@]21C` [17-HYDROXYAZADIRADIONE], the survival at 50 µg/disc in assay [8] was 73%. Besides, the Activity turned out to be 80% in [1]; 16.5 µg in assay [2]; 9.4 µg in assay [3]; 8.6 µg in assay [13]; 17.8 µg in [6]. Moreover, the survival at 100 µg/disc in assay [9] is 61%. In addition, in assay [11], the survival at 300 µg/disc was 33.5%. The survival at 200 µg/disc in assay [12] is 50%. This molecule gave a PC50 in assay [4] of 67.8 µg. In assay [4], this molecule yielded a PC95 of 235.6 µg.
With `CC(=O)O[C@@H]1C[C@H]2C(C)(C)C(=O)C=C[C@]2(C)[C@H]2CC[C@]3(C)C(=CC(=O)[C@H]3c3ccoc3)[C@@]21C` [AZADIRADIONE], the Activity in assay [14] was 49.5 µg; in assay [2] it was 55.1 µg; in [3], 79.3 µg; in assay [13], 62.9 µg; in [16], 2 µg. In addition, the survival at 100 µg/disc in assay [9] turned out to be 73%. The survival at 400 µg/disc in assay [10] was 24.5%. Besides, the survival at 300 µg/disc in assay [11] was 39%. Besides, in assay [12], the survival at 200 µg/disc is 65.5%. In assay [15], the survival at 500 µg/disc worked out at 0.5%. The PC50 in assay [4] was determined as 238.5 µg. The PC95 in assay [4] was determined as 827.5 µg.
For `CC1(C)C(=O)C=C[C@]2(C)[C@H]3CC[C@@]4(C)[C@H](c5ccoc5)OC(=O)[C@H]5O[C@]54[C@]3(C)[C@H](O)C[C@@H]12` [DEACETYLGEDUNIN], the survival at 50 µg/disc in assay [8] was determined as 20%. For the same molecule, in [9], the survival at 100 µg/disc came out at 12%. In addition, the Activity in assay [2] amounted to 7.2 µg; in [18], 2.2 µg; in [22] it was 3.1 µg; in assay [23] it was 80.38%; in [24], 4.7 µg; in assay [25], 3.2 µg. The Activity in [6] worked out at 4.7 µg. In addition, in assay [17], the survival at 10 µg/disc came to 73.3%. Also, in [19], the survival at 5 µg/disc was 91.3%. The survival at 25 µg/disc in assay [20] came out at 45.3%. In addition, in assay [21], the survival at 7.5 µg/disc came to 87.3%. Further, in assay [4], the PC50 was determined as 22.5 µg. For the same molecule, the PC95 in assay [4] came out at 113.7 µg.
Take `COC(=O)C[C@H]1[C@]2(C)C3=C(C)[C@H](c4ccoc4)C[C@H]3O[C@@H]2[C@H](O)[C@@H]2[C@]1(C)C(=O)C=C[C@@]2(C)C(=O)OC` [DEACETYLNIMBIN]: in assay [8], the survival at 50 µg/disc stood at 87.5%. Moreover, in [9], the survival at 100 µg/disc was found to be 85%. Besides, in [11], the survival at 300 µg/disc worked out at 74%. Also, in assay [12], the survival at 200 µg/disc came to 78.5%. In [4], the PC50 was determined as 280.6 µg and the PC95 worked out at 1581.2 µg.
As for `C/C=C(\C)C(=O)O[C@H]1C[C@@H](O)[C@@]2(C)CO[C@H]3[C@H]4O[C@@H]5C[C@@H](c6ccoc6)C(C)=C5[C@@]4(C)[C@H](CC(=O)OC)[C@]1(C)[C@@H]32` [DESACETYL SALANNIN], in assay [9], the survival at 100 µg/disc is 72%. In assay [10], the survival at 400 µg/disc was found to be 44%. Moreover, in assay [11], the survival at 300 µg/disc is 49%. Moreover, the survival at 200 µg/disc in assay [12] amounted to 58%. In [4], this molecule yielded a PC50 of 55.2 µg and a PC95 of 1373.1 µg.
Regarding `CC(=O)O[C@@H]1C[C@H]2C(C)(C)C(=O)C=C[C@]2(C)[C@H]2CC[C@@]3(C)[C@H](c4ccoc4)C(=O)[C@H]4O[C@]43[C@@]21C` [EPOXYAZADIRADIONE], the survival at 100 µg/disc in assay [9] was 75.5%. For the same molecule, the survival at 400 µg/disc in assay [10] was determined as 64%. Further, in [11], the survival at 300 µg/disc stood at 76.5%. The survival at 200 µg/disc in assay [12] came out at 77%.
With `CC(=O)O[C@@H]1C[C@H]2C(C)(C)C(=O)C=C[C@]2(C)[C@H]2CC[C@@]3(C)[C@H](c4ccoc4)OC(=O)[C@H]4O[C@]43[C@@]21C` [GEDUNIN], in assay [8], the survival at 50 µg/disc amounted to 51.3%. The Activity in assay [1] stood at 80%; in assay [2], 11 µg; in [28], 6.8 µg; in [24] it was 8.5 µg; in assay [5], 5 µg; in assay [6] it was 9 µg. In addition, the Activity in assay [7] was 10.5 µg. In assay [9], the survival at 100 µg/disc came to 39.3%. Moreover, in assay [26], the survival at 150 µg/disc was found to be 13.3%. Besides, the survival at 125 µg/disc in assay [27] amounted to 23.3%. For the same molecule, in assay [20], the survival at 25 µg/disc turned out to be 82%. Moreover, the PC50 in assay [4] came to 49 µg. In assay [4], this molecule returned a PC95 of 218.4 µg. Also, in assay [29], the survival at 75 µg/disc is 49.3%.
With `COC(=O)C[C@H]1[C@]2(C)C3=C(C)[C@H](c4ccoc4)C[C@H]3O[C@@H]2[C@H](OC(C)=O)[C@@H]2[C@]1(C)C(=O)C=C[C@@]2(C)C(=O)OC` [NIMBIN], in assay [9], the survival at 100 µg/disc was 84%. In assay [10], the survival at 400 µg/disc was found to be 83%. Moreover, the survival at 300 µg/disc in assay [11] stood at 83%. Moreover, in assay [12], the survival at 200 µg/disc was found to be 84.5%. The survival at 500 µg/disc in assay [15] worked out at 80.5%.
As to `C/C=C(/C)C(=O)O[C@H]1C[C@@H](OC(C)=O)[C@@]2(C)CO[C@H]3[C@H]4O[C@@H]5C[C@@H](c6ccoc6)C(C)=C5[C@@]4(C)[C@H](CC(=O)OC)[C@]1(C)[C@@H]32` [SALANNIN], the survival at 50 µg/disc in [8] was 58.7%. Also, the Activity worked out at 80% in assay [1]; 1.4 µg in assay [2]; 0.8 µg in assay [28]; 3.7 µg in [24]; 0.5 µg in assay [5]; 1.8 µg in [6]. Moreover, the Activity in assay [7] stood at 0.8 µg. For the same molecule, the survival at 100 µg/disc in [9] worked out at 40%. The survival at 150 µg/disc in assay [26] was determined as 30.7%. In addition, in [27], the survival at 125 µg/disc was 17.3%. Moreover, the survival at 25 µg/disc in assay [20] came to 90.7%. The PC50 in [4] worked out at 19.5 µg. Further, the PC95 in assay [4] was determined as 203.3 µg. For the same molecule, the survival at 75 µg/disc in [29] was 29.3%.
